Experiments:
[1] = tested on: GRP78, ATF6, IRE1 and PERK; assay: Western blotting of ER stress markers in pancreatic cancer cells; format: cell-based, human and murine; details: 50 µM, 2 h
Description: (§1) Cells were rinsed with ice-cold lysis buffer (50 mM, Tris, 10 mM EDTA, 1 % v/v Triton-X100), supplemented with protease inhibitor cocktail set III (80 µM aprotinin, 5 mM bestatin, 1.5 mM leupeptin, 1 mM pepstatin; Calbiochem, San Diego, CA, USA), 2 mM phenylmethylsulfonyl fluoride and 1 mM Na3VO4, then sonicated and centrifuged at 13,000 g for 10 min at 4 °C. 20 µg protein extracts were subjected to SDS-PAGE and probed with antibodies directed against ATG5, ATG7, ATG12, beclin, p62, LC3, GRP78, ATF6, IRE-1α and PERK (all from Abcam, Cambridge, UK), followed by incubation with a peroxidase-conjugated secondary antibody (Bio-Rad Laboratories). Next, the membranes were washed with Tris-buffered saline-Tween 0.1 % v/v solution, and proteins were detected by enhanced chemiluminescence (Bio-Rad Laboratories). To check for equal loading, the samples were probed with an anti-β-tubulin antibody (Santa Cruz Biotechnology Inc., Santa Cruz, CA, USA).

PANC-1 xenografts = assay: In vivo xenograft assay, PANC-1; design: species or system mice; details: for tumor growth / intratumor apoptosis (cleaved caspase 3) and lipid peroxidation: 30 days
Description: 2 × 10^5 PANC-1 or Mia-PaCa2 cells were inoculated subcutaneously in the right flank of 6-week old C57BL/6 female nude mice (Charles River Laboratories Italia, Calco), housed (5 per cage) under a 12 h light/dark cycle, with food and drinking water provided ad libitum. Tumor growth was measured daily by caliper, according to the equation (LxW^2)/2, where L = tumor length and W = tumor width. When tumors reached a volume of 100 mm^3, the mice (n = 8/group) were randomized in the following groups and treated daily for 15 days or 30 days intraperitoneally as reported: (1) Vehicle group (100 µl saline solution), (2) FA4^low group (750 nmol FA4 in 100 µl saline solution), (3) FA4^high group (1500 nmol FA4 in 100 µl saline solution) and (4) Gemcitabine group (20 mg/kg gemcitabine, twice a week). Tumor volumes and animal weights were monitored daily. Animals were euthanized at day 18 or 36 after randomization with zolazepam (0.2 ml/kg) and xylazine (16 mg/kg). Next, tumors were excised and paraffin-embedded. Sections were immuno-stained for cleaved caspase 3 (Cell Signalling Technology, Danvers, MA, USA) or with an anti-malondialdehyde antibody (Abcam), followed by a peroxidase-conjugated secondary antibody (Dako, Glostrup, Denmark). The sections were examined under a Leica DC100 microscope (Leica, Wetzlar, Germany). Quantification of the immunohistochemical analyses was performed using ImageJ software (https://imagej.nih.gov/). The staining intensities were expressed as arbitrary units and considered 1 in the vehicle group.

mitochondrial ROS = assay: Mitochondrial ROS measurement (MitoSOX); format: cell-based, human and murine; details: 50 µM, 2 h
Description: Intra-mitochondrial ROS was measured using fluorescent probe MitoSOX as per manufacturer’s instructions (Invitrogen). To measure total ROS, cells were incubated with the ROS-sensitive probe 5-(and-6)-chlorometyl-20,70-dichlorodihydro-fluorescein diacetate-acetoxymethyl ester ([…]; DCFDA-AM) as described by Riganti et al.. The results are expressed as nmol/mg mitochondrial or cellular protein, respectively.

[2] = tested on: mitochondrial depolarization; assay: Mitochondrial depolarization assay (JC-1); format: cell-based, human and murine; details: 50 µM, 2 h, JC1 staining
Description: Staining with JC-1 fluorescent probe (Biotium Inc., Freemont, CA, USA) was performed as detailed in Riganti et al.. The resulting fluorescence units were used to calculate the percentage of green-fluorescent (i.e., depolarized) mitochondria versus red-fluorescent (i.e., polarized) mitochondria.

sigma-2 receptors [3] = biological target: T1, sigma-2 receptors (Rattus norvegicus, UniProt Q5U3Y7); assay: Sigma-2 radioligand binding assay ([3H]-DTG, rat liver membranes)
T1 construct: in rat liver membranes; from tissue; host or cells: rat liver membranes
T1 sequence (Q5U3Y7 whole entry): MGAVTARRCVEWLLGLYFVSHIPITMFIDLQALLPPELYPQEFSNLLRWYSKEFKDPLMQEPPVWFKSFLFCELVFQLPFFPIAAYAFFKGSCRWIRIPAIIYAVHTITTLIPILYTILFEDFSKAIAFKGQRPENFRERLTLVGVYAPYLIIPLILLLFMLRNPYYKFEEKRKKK
Description: Sigma-2 receptor binding was carried out according to Berardi et al.. […] Concentrations required to inhibit 50 % of radioligand-specific binding (IC50) were determined using six to nine different concentrations of the drug in two or three experiments with samples in duplicate. Scatchard parameters (Kd and Bmax) and apparent inhibition constant (Ki) values were determined by nonlinear curve fitting, using Prism version 5.0, GraphPad software.

[4] = mouse, in vivo
Description: 2 × 10^5 PANC-1 or Mia-PaCa2 cells were inoculated subcutaneously in the right flank of 6-week old C57BL/6 female nude mice (Charles River Laboratories Italia, Calco), housed (5 per cage) under a 12 h light/dark cycle, with food and drinking water provided ad libitum. Tumor growth was measured daily by caliper, according to the equation (LxW^2)/2, where L = tumor length and W = tumor width. […] Tumor volumes and animal weights were monitored daily. Animals were euthanized at day 18 or 36 after randomization with zolazepam (0.2 ml/kg) and xylazine (16 mg/kg). […] Red blood cell (RBC) count, hemoglobin (Hb), white blood cell (WBC) count, platelet (PLT) count, lactate dehydrogenase (LDH), aspartate aminotransferase (AST), alanine aminotransferase (ALT), alkaline phosphatase (AP), creatinine and creatine phosphokinase (CPK) were measured in blood samples collected immediately after euthanasia, using commercially available kits from Beckman Coulter Inc (Beckman Coulter, Miami, FL, USA).
Blood was collected immediately after euthanasia and analyzed for red blood cells (RBC) count, hemoglobin (Hb), white blood cells (WBC) count, platelets (PLT) count, lactate dehydrogenase (LDH), aspartate aminotransferase (AST), alanine aminotransferase (ALT), alkaline phosphatase (AP), creatinine, creatine phosphokinase (CPK). Data are presented as means ± SD.

caspase 7 = assay: Caspase 7 activity assay in pancreatic cancer cells; format: cell-based, human and murine; details: 50 µM, 2 h
Description: Caspase 3, caspase 7 and caspase 9 activation was measured using a Caspase 3/7 Fluorescence Assay kit (Cayman Chemical, Ann Arbor, MI, USA) and a Caspase 9 fluorometric assay kit (Enzo Life Science, Roma, Italy). The results are expressed as nmol of the hydrolyzed substrate of each caspase/mg cellular proteins, according to a previously set titration curve.

[5] = tested on: ATG5, ATG7, ATG12, beclin 1, p62, LC3; assay: Western blotting of autophagy and sequestration markers; format: cell-based, human and murine; details: 50 µM, 2 h
Description: as §1

sigma-2 receptors [6] = biological target: T2, sigma-2 receptors (Mus musculus, UniProt Q8VD00); assay: Flow cytometry displacement of sigma-2 fluorescent ligand NO1 in murine KP02 cells; format: binding
T2 construct: endogenous in cells; host or cells: KP02 (murine pancreatic cancer cells)
T2 sequence (Q8VD00 whole entry): as the sequence (Q5U3Y7 whole entry) above, with V4L, T5A, M26L, L33V, F71L, V105A, I118L, I127V, N136S, F169Y counted along it
Description: Flow cytometry studies to detect receptor densities and ligand binding affinities were carried out according to Abate et al. and Niso et al., for the sigma-1 and sigma-2 receptors, respectively. […] At the end of the incubation periods, the cells were washed twice with PBS, detached with […] Cell Dissociation Solution (Sigma Chemical Co.) for 10 min at 37 °C, centrifuged at 13,000 g for 5 min and resuspended in 500 µl PBS. Fluorescence was recorded using a Bio-Guava® easyCyte™ 5 Flow Cytometry System (Millipore, Billerica, MA, USA) equipped with a 530 nm band pass filter. For each analysis, 50,000 events were collected and analyzed using InCyte software (Millipore).

[7] = tested on: GRP78, ATF6, IRE1 and PERK; assay: qRT-PCR of ER stress markers in pancreatic cancer cells; format: cell-based, human and murine; details: 50 µM, 2 h
Description: Total RNA was extracted using a phenol/chloroform method, after which 1 µg RNA was reverse-transcribed using an iScript Reverse Transcription Supermix kit according to the manufacturer’s instructions (Bio-Rad Laboratories). 25 ng cDNA was amplified using 10 µl of an IQ™ SYBR Green Supermix (Bio-Rad Laboratories). Primers were designed using qPrimer Depot software (http://primerdepot.nci.nih.gov/). qRT-PCR was carried out using an iQ^TM5 cycler (Bio-Rad Laboratories). The cycling conditions used were: 30 s at 95 °C, followed by 40 cycles of denaturation (15 s at 95 °C) and annealing/extension (30 s at 60 °C). The same cDNA preparations were used to quantify the expression of genes of interest and that of the housekeeping gene S14, which was used to normalize the gene expression levels. Relative quantitation of each sample was performed using Gene Expression Quantitation software (Bio-Rad Laboratories). The results were expressed in arbitrary units. For each gene, the expression level in untreated cells was arbitrarily set at “1”.

sigma-1 receptors = biological target: T3, sigma-1 receptors (Homo sapiens, UniProt Q99720); assay: Flow cytometry displacement of sigma-1 fluorescent ligand LM1 in human pancreatic cancer cells; format: binding
T3 construct: endogenous in cells; host or cells: PANC-1, MiaPaCa2 (whole cells)
T3 sequence (Q99720 whole entry): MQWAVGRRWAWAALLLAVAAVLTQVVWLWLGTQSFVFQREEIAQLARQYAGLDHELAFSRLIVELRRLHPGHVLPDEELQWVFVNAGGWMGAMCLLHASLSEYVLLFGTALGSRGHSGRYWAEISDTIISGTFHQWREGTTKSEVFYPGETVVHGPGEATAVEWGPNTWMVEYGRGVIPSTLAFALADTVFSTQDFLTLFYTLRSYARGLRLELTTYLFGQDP
Description: (10 µM) was co-incubated. At the end of the incubation periods, the cells were washed twice with PBS, detached with […] Cell Dissociation Solution (Sigma Chemical Co.) for 10 min at 37 °C, centrifuged at 13,000 g for 5 min and resuspended in 500 µl PBS. Fluorescence was recorded using a Bio-Guava® easyCyte™ 5 Flow Cytometry System (Millipore, Billerica, MA, USA), equipped with a 530 nm band pass filter. For each analysis, 50,000 events were collected and analyzed using InCyte software (Millipore).

SMILES: CN(C)C(=S)N/N=C1\C(=O)N(CCCCN2CCC3(CC2)OCc2ccccc23)c2ccccc21 [FA4, (Z)-2-(1-(4-(3 H-spiro[isobenzofuran-1,4’-piperidine]-1’-yl)butyl)-2-oxoindolin-3-ylidene)-N,N-dimethylhydrazinecarbothioamide]
- protein expression of ER stress sensors and executers (Western blot) [1]: in all cell lines except MiaPaCa2, this thiosemicarbazone was able to increase the expression of ER stress sensors and executers
- tumor volume vs vehicle (PANC-1 xenografts; FA4 750 nmol (low) and 1500 nmol (high) i.p. daily, 15 days): tumors were significantly smaller
- tumor growth (PANC-1 xenografts; FA4 high dosage 1500 nmol i.p. daily): regression of tumor growth
- intratumor apoptosis (cleaved caspase 3) and lipid peroxidation (PANC-1 xenografts; FA4 high dosage): became more pronounced
- tumor growth (PANC-1 xenografts; FA4 low dosage 750 nmol i.p. daily): cytostatic effect
- intratumor apoptosis (cleaved caspase 3) and lipid peroxidation (PANC-1 xenografts; FA4 low dosage): low or undetectable
- mitochondrial ROS (mitochondrial ROS): increased mitochondrial ROS in all the cell lines tested, except MiaPaCa2
- mitochondrial depolarization [2]: all FA4-treated cells had depolarized (i.e., damaged) mitochondria, except MiaPaCa2
- Ki (sigma-2 receptors [3]): 15.8 ± 3.6 nM
- blood cell counts and hemato-chemical parameters vs control [4]: no significant differences
- caspase 7 activation (caspase 7): activated by FA4 in all cell lines except MiaPaCa2
- levels of autophagosome proteins, p62 and LC3 conversion [5]: reduced the levels of all the above-mentioned proteins as well as the LC-I/LC-II conversion in responsive cells, but not in MiaPaCa2 cells
- IC50 (sigma-2 receptors [6]): 11.6 ± 1.5 nM
- mRNA expression of ER stress markers GRP78, ATF6, IRE1, PERK [7]: increased upon treatment with FA4 in all the cells tested, except in MiaPaCa2 cells
- IC50 (sigma-1 receptors; Flow Cytometry, IC50 ± SEM, Sigma-1, MiaPaCa2, MiaPaCa2 cells, displacement of LM1): 53.2 ± 5.6 nM
- IC50 (sigma-1 receptors; Flow Cytometry, IC50 ± SEM, Sigma-1, PANC-1, PANC-1 cells, displacement of LM1): 51.3 ± 4.3 nM
- IC50 (sigma-1 receptors; IC50 at sigma-1 receptor by flow cytometry (discussion), PANC-1 and MiaPaCa2 cells): ~50 nM
- lower affinity for the sigma-1 receptor compared to the sigma-2 receptor (sigma-1 receptors; flow cytometry IC50 values): 5 fold
